This is an account of results in PubChem BioAssay AID1259407 (Chemical Carcinogenesis Research Information System (CCRIS), 2018).

The source made the active and inactive calls. How the calls were made is not given here.

The data set has as its system CCRIS mutagenicity, Ames/micronucleus/aberration tests. Description: CCRIS mutagenicity studies.
Where [1] appears, read: Test System: AMES SALMONELLA TYPHIMURIUM, Strain/Indicator: TA98, Metabolic Activation: NONE, Method: STANDARD PLATE.
Setting [2] is: Test System: AMES SALMONELLA TYPHIMURIUM, Strain/Indicator: TA100, Metabolic Activation: NONE, Method: STANDARD PLATE.
Setting [3] is: Test System: AMES SALMONELLA TYPHIMURIUM, Strain/Indicator: TA1535, Metabolic Activation: NONE, Method: STANDARD PLATE.
[4] abbreviates: Test System: AMES SALMONELLA TYPHIMURIUM, Strain/Indicator: TA1537, Metabolic Activation: NONE, Method: STANDARD PLATE.
[5] abbreviates: Test System: AMES SALMONELLA TYPHIMURIUM, Strain/Indicator: TA1538, Metabolic Activation: NONE, Method: STANDARD PLATE.
[6] abbreviates: Test System: MOUSE LYMPHOMA, Strain/Indicator: L5178Y (TK+/TK-), Metabolic Activation: NONE, Method: SUSPENSION/PLATE.

Take `C[Si]1(C)O[Si](C)(C)O[Si](C)(C)O[Si](C)(C)O1`: the mutagenic call reads like this: (Test System: AMES SALMONELLA TYPHIMURIUM, Strain/Indicator: TA98, Metabolic Activation: NONE, Method: PREINCUBATION) “inactive; negative”; under setting [1], “inactive; negative”; (Test System: AMES SALMONELLA TYPHIMURIUM, Strain/Indicator: TA98, Metabolic Activation: RAT LIVER S-9, AROCLOR 1254, Method: PREINCUBATION) “inactive; negative”; (Test System: AMES SALMONELLA TYPHIMURIUM, Strain/Indicator: TA98, Metabolic Activation: RAT LIVER S-9, AROCLOR 1254, Method: STANDARD PLATE) “inactive; negative”; (Test System: AMES SALMONELLA TYPHIMURIUM, Strain/Indicator: TA100, Metabolic Activation: NONE, Method: PREINCUBATION) “inactive; negative”; under setting [2], “inactive; negative”. Moreover, the mutagenic call is “inactive; negative” (Test System: AMES SALMONELLA TYPHIMURIUM, Strain/Indicator: TA100, Metabolic Activation: RAT LIVER S-9, AROCLOR 1254, Method: PREINCUBATION); “inactive; negative” (Test System: AMES SALMONELLA TYPHIMURIUM, Strain/Indicator: TA100, Metabolic Activation: RAT LIVER S-9, AROCLOR 1254, Method: STANDARD PLATE); “inactive; negative” (Test System: AMES SALMONELLA TYPHIMURIUM, Strain/Indicator: TA1535, Metabolic Activation: NONE, Method: PREINCUBATION); “inactive; negative” under setting [3]; “inactive; negative” (Test System: AMES SALMONELLA TYPHIMURIUM, Strain/Indicator: TA1535, Metabolic Activation: RAT LIVER S-9, AROCLOR 1254, Method: PREINCUBATION); “inactive; negative” (Test System: AMES SALMONELLA TYPHIMURIUM, Strain/Indicator: TA1535, Metabolic Activation: RAT LIVER S-9, AROCLOR 1254, Method: STANDARD PLATE). Also, the mutagenic call is, setting by setting: (Test System: AMES SALMONELLA TYPHIMURIUM, Strain/Indicator: TA1537, Metabolic Activation: NONE, Method: PREINCUBATION) “inactive; negative”; under setting [4], “inactive; negative”; (Test System: AMES SALMONELLA TYPHIMURIUM, Strain/Indicator: TA1537, Metabolic Activation: RAT LIVER S-9, AROCLOR 1254, Method: PREINCUBATION) “inactive; negative”; (Test System: AMES SALMONELLA TYPHIMURIUM, Strain/Indicator: TA1537, Metabolic Activation: RAT LIVER S-9, AROCLOR 1254, Method: STANDARD PLATE) “inactive; negative”; (Test System: AMES SALMONELLA TYPHIMURIUM, Strain/Indicator: TA1538, Metabolic Activation: NONE, Method: PREINCUBATION) “inactive; negative”; under setting [5], “inactive; negative”. Besides, the mutagenic call is “inactive; negative” (Test System: AMES SALMONELLA TYPHIMURIUM, Strain/Indicator: TA1538, Metabolic Activation: RAT LIVER S-9, AROCLOR 1254, Method: PREINCUBATION); “inactive; negative” (Test System: AMES SALMONELLA TYPHIMURIUM, Strain/Indicator: TA1538, Metabolic Activation: RAT LIVER S-9, AROCLOR 1254, Method: STANDARD PLATE); “inactive; negative” (Test System: E. COLI, Strain/Indicator: P3078 POLA, Metabolic Activation: NONE, Method: SPOT TEST); “inactive; negative” (Test System: E. COLI, Strain/Indicator: P3078 POLA, Metabolic Activation: RAT LIVER S-9, AROCLOR 1254, Method: SPOT TEST); “inactive; negative” (Test System: E. COLI, Strain/Indicator: W3110, Metabolic Activation: NONE, Method: SPOT TEST); “inactive; negative” (Test System: E. COLI, Strain/Indicator: W3110, Metabolic Activation: RAT LIVER S-9, AROCLOR 1254, Method: SPOT TEST). Further, the mutagenic call was “inactive; negative” under setting [6]; “inactive; negative” (Test System: MOUSE LYMPHOMA, Strain/Indicator: L5178Y (TK+/TK-), Metabolic Activation: RAT, LIVER, S-9, Method: SUSPENSION/PLATE); “inactive; inconclusive (previous evaluation negative)” (Test System: Mouse lymphoma, Strain/Indicator: L5178Y (tk+/tk-), Metabolic Activation: None, Method: Suspension/plate); “inactive; negative” (Test System: Mouse lymphoma, Strain/Indicator: L5178Y (tk+/tk-), Metabolic Activation: Rat, Liver, S-9, Aroclor 1254, Method: Suspension/plate).

In the case of `C[n+]1cccc(C(=O)[O-])c1`, the mutagenic call is “inactive; negative” (Test System: AMES SALMONELLA TYPHIMURIUM, Strain/Indicator: TA98, Metabolic Activation: HAMSTER, LIVER, S-9, AROCLOR 1254, Method: STANDARD PLATE); “inactive; negative” under setting [1]; “active; positive” (Test System: AMES SALMONELLA TYPHIMURIUM, Strain/Indicator: TA98, Metabolic Activation: RAT LIVER S-9, CHLOROPHENE, Method: STANDARD PLATE (COMPOUND HEATED AT 250 DEGREES CELSIUS FOR 20 MIN)); “inactive; negative” (Test System: AMES SALMONELLA TYPHIMURIUM, Strain/Indicator: TA98, Metabolic Activation: RAT, LIVER, S-9, AROCLOR 1254, Method: STANDARD PLATE); “inactive; negative” (Test System: AMES SALMONELLA TYPHIMURIUM, Strain/Indicator: TA100, Metabolic Activation: HAMSTER, LIVER, S-9, AROCLOR 1254, Method: STANDARD PLATE); “inactive; negative” under setting [2]. Besides, the mutagenic call (Test System: AMES SALMONELLA TYPHIMURIUM, Strain/Indicator: TA100, Metabolic Activation: RAT, LIVER, S-9, AROCLOR 1254, Method: STANDARD PLATE) is “inactive; negative”; the mutagenic call (Test System: AMES SALMONELLA TYPHIMURIUM, Strain/Indicator: TA1535, Metabolic Activation: HAMSTER, LIVER, S-9, AROCLOR 1254, Method: STANDARD PLATE) was “inactive; negative”; the mutagenic call under setting [3] was “inactive; negative”; the mutagenic call (Test System: AMES SALMONELLA TYPHIMURIUM, Strain/Indicator: TA1535, Metabolic Activation: RAT, LIVER, S-9, AROCLOR 1254, Method: STANDARD PLATE) is “inactive; negative”; the mutagenic call (Test System: AMES SALMONELLA TYPHIMURIUM, Strain/Indicator: TA1537, Metabolic Activation: HAMSTER, LIVER, S-9, AROCLOR 1254, Method: STANDARD PLATE) was “inactive; negative”; the mutagenic call under setting [4] is “inactive; negative”. Further, the mutagenic call is “inactive; negative” (Test System: AMES SALMONELLA TYPHIMURIUM, Strain/Indicator: TA1537, Metabolic Activation: RAT, LIVER, S-9, AROCLOR 1254, Method: STANDARD PLATE); “inactive; negative” (Test System: AMES SALMONELLA TYPHIMURIUM, Strain/Indicator: TA1538, Metabolic Activation: HAMSTER, LIVER, S-9, AROCLOR 1254, Method: STANDARD PLATE); “inactive; negative” under setting [5]; “inactive; negative” (Test System: AMES SALMONELLA TYPHIMURIUM, Strain/Indicator: TA1538, Metabolic Activation: RAT, LIVER, S-9, AROCLOR 1254, Method: STANDARD PLATE); “inactive; negative. reevaluation of results: inconclusive” under setting [6]; “inactive; negative. reevaluation of results: inconclusive” (Test System: MOUSE LYMPHOMA, Strain/Indicator: L5178Y (TK+/TK-), Metabolic Activation: RAT, LIVER, S-9, AROCLOR 1254, Method: SUSPENSION/PLATE).

Regarding `O=[N+]([O-])c1cc2[nH]c3ccc4ccccc4c3c2c2ccccc12`, the mutagenic call under setting [1] was “inactive; negative”; the mutagenic call (Test System: AMES SALMONELLA TYPHIMURIUM, Strain/Indicator: TA98, Metabolic Activation: RAT, LIVER, S-9, 3-METHYLCHOLANTHRENE, Method: STANDARD PLATE) is “active; positive”; the mutagenic call under setting [2] is “inactive; negative”; the mutagenic call (Test System: AMES SALMONELLA TYPHIMURIUM, Strain/Indicator: TA100, Metabolic Activation: RAT, LIVER, S-9, 3-METHYLCHOLANTHRENE, Method: STANDARD PLATE) was “inactive; negative”.

For the compound `COc1cccc(C=O)c1O`, the mutagenic call was “inactive; negative” under setting [1]; “inactive; negative” under setting [2]; “inactive; negative” (Test System: E. COLI, Strain/Indicator: CM561 LEXA, Metabolic Activation: NONE, Method: STANDARD PLATE); “inactive; negative” (Test System: E. COLI, Strain/Indicator: CM611 UVRA/LEXA, Metabolic Activation: NONE, Method: STANDARD PLATE); “inactive; negative” (Test System: E. COLI, Strain/Indicator: WP2 UVRA, Metabolic Activation: NONE, Method: STANDARD PLATE).
